Measured values: US20070244030A1, “Method for Assessing Cancerous State” (SUMITOMO CHEMICAL COMPANY, LIMITED, priority 2003, published 2007)

Legend:
Neurofilament3 gene [1] = assay: Real Time PCR of Neurofilament3 mRNA in PANC-1 cultured with methylation inhibitor; type: cell-based, human; conditions: PANC-1 pancreatic cancer cell line, cells recovered on fourth day, not detected without inhibitor
Protocol: (§1) Two kinds of human-derived pancreatic cancer cell lines (PANC-1 and HPAC) were seeded at a density of about 6×10^5 cells/10 cm plate, and cultured using an exclusively used medium. On the first day after seeding, 5-aza-2′-deoxytidine (manufactured by Sigma) (hereinafter, referred to as 5Aza-dC) which is a methylation inhibitor was added to a medium to give the concentration of 0.5 or 1 μM. Twenty four hours after addition of 5Aza-Dc, the medium was exchanged with the aforementioned medium to which no 5Aza-dC was added, and culturing was continued. Then, on the third day after seeding, 5Aza-dC was added to the medium similarly. […]
(§2) A reaction solution of PCR was used which was obtained by mixing 50 ng of a cDNA as a template, each 1 μl of two kinds of 10 pmol/μl aforementioned primer solution, 4 μl of 2.5 mM dNTP, 4 μl of 5 mM dUTP, 5 μl of 10×SYBR Green PCR Buffer, 6 μof 25 mM MgCl2 and 0.3 μl of a 5 U/μl thermostable DNA polymerase (AmpliTaq Gold), 0.5 μl of AmpEraseUNG and adding sterilized ultrapure water thereto to an amount of solution of 50 μl. […] When a DNA derived from mRNA of Neurofilament3 gene and GAPDH gene was amplified, after the reaction solution Was retained at 95° C. for 10 minutes, Real Time PCR was performed at the conditions under which each cycle was 30 seconds at 95° C., 30 seconds at 59° C. and 30 seconds at 72° C. to quantitate Neurofilament3 gene and GAPDH gene.

Neurofilament3 gene [2] = assay: Real Time PCR of Neurofilament3 mRNA in HPAC cultured with methylation inhibitor; type: cell-based, human; conditions: HPAC pancreatic cancer cell line, cells recovered on fourth day, not detected without inhibitor
Protocol: as §1, §2

[3] = 0.5 μM 5Aza-dC added on first and third day
[4] = 1 μM 5Aza-dC added on first and third day

Measured: DNA derived from a mRNA of Neurofilament3 gene (expression of Neurofilament3 gene)

Nc1ncn([C@H]2C[C@H](O)[C@@H](CO)O2)c(=O)n1 [5Aza-dC, 5-aza-2′-deoxytidine]
detected: Neurofilament3 gene [1]; [3] | Neurofilament3 gene [1]; [4] | Neurofilament3 gene [2]; [3] | Neurofilament3 gene [2]; [4]
